Measurements reported in patent US20100048660A1, “TREATMENT OF DUCHENNE MUSCULAR DYSTROPHY” (priority 2006, published 2010).

tested on: Utrophin A promoter linked to a luciferase reporter gene (H2K/mdx/Utro A reporter cell line); experiment: Luciferase reporter assay (murine H2K cells); format: cell-based; conditions: Mus musculus; Table 1; murine H2K mdx myoblasts, compound final concentration 10 μM, 48 hrs; read-out: Activity (luciferase reporter assay, relative to control)
Method: 1. Luciferase Reporter Assay (Murine H2K Cells)
The cell line used for the screen is an immortalized mdx mouse H2K cell line that has been stably transfected with a plasmid containing ≈5 kb fragment of the Utrophin A promoter including the first untranslated exon linked to a luciferase reporter gene (see FIG. 1).
Under conditions of low temperature and interferon containing media, the cells remain as myoblasts. These are plated into 96 well plates and cultured in the presence of compound for three days. The level of luciferase is then determined by cell lysis and reading of the light output from the expressed luciferase gene utilising a plate luminometer.
The H2K/mdx/Utro A reporter cell line was passaged twice a week until ≦30% confluent. The cells were grown at 33° C. in the presence of 10% CO2
The H2K/mdx/Utro A reporter cell line cells were plated out into 96 well plates (Falcon 353296, white opaque) at a density of approximately 5000 cells/well in 190 μl normal growth medium. The plates were then incubated at 33° C. in the presence of 10% CO2 for 24 hrs.
Compounds were dosed by adding 10 μl of diluted compound to each well giving a final concentration of 10 μM. The plates were then incubated for a further 48 hrs
Cells were then lysed in situ following the manufacture's protocols (Promega Steady-Glo Luciferase Assay System (E2520). Then counted for 10 seconds using a plate luminometer (Victorl420).

Row | Structure (SMILES) | activity at 10 µM [%]
1 | CC(C)C(=O)Nc1ccc2nn(-c3ccc(Cl)c(Cl)c3)nc2c1 [Example 53, N-(2-(3,4-Dichlorophenyl)-2H-benzo[d][1,2,3]triazol-5-yl)isobutyramide] | > 401
2 | CS(=O)(=O)c1ccc2nn(-c3ccc(Cl)c(Cl)c3)nc2c1 [Example 50, 2-(3,4-dichlorophenyl)-5-(methylsulfonyl)-2H-benzo[d][1,2,3]triazole] | 201 to 300
3 | CC(C)C(=O)Nc1ccc2cn(-c3ccc(Cl)cc3)nc2c1 [Example 46, N-(2-(4-chlorophenyl)-2H-indazol-6-yl)isobutyramide] | > 401
4 | CCN(CC)c1ccc(-n2nc3ccc(NC(=O)c4ccc(N(C)C)cc4)cc3n2)cc1 [Example 33, N-(2-(4-(diethylamino)phenyl)-2H-benzo[d][1,2,3]triazol-5-yl)-4-(dimethylamino)benzamide] | < 200
5 | Cc1cc2nn(-c3ccc(Cl)cc3)nc2cc1NC(=O)c1ccccc1 [Example 3, N-(2-(4-chlorophenyl)-6-methyl-2H-benzo[d][1,2,3]triazol-5-yl)benzamide] | < 200
6 | CCN(CC)c1ccc(-n2nc3ccc(NC(=O)c4ccccc4OC)cc3n2)cc1 [Example 31, N-(2-(4-(diethylamino)phenyl)-2H-benzo[d][1,2,3]triazol-5-yl)-2-methoxybenzamide] | < 200
7 | CC(C)C(=O)Nc1ccc2nn(-c3ccc(Cl)cc3)nc2c1 [Example 37, N-(2-(4-chlorophenyl)-2H-benzo[d][1,2,3]triazol-5-yl)isobutyramide] | > 401
8 | CCN(CC)c1ccc(-n2nc3ccc(N)cc3n2)cc1 [Example 19, 2-(4-(diethylamino)phenyl)-2H-benzo[d][1,2,3]triazol-5-amine] | 301 to 400
9 | CCN(CC)c1ccc(-n2nc3cc(C)c(NC(=O)c4ccco4)cc3n2)cc1 [Example 18, N-(2-(4-(diethylamino)phenyl)-6-methyl-2H-benzo[d][1,2,3]triazol-5-yl)furan-2-carboxamide] | < 200
10 | CCC(=O)Nc1ccc2nn(-c3ccc(Cl)cc3)nc2c1 [Example 35, N-(2-(4-chlorophenyl)-2H-benzo[d][1,2,3]triazol-5-yl)propionamide] | > 401
11 | CS(=O)(=O)c1ccc2cn(-c3ccc(Cl)cc3)nc2c1 [Example 44, 2-(4-chlorophenyl)-6-(methylsulfonyl)-2H-indazole] | 201 to 300
12 | CCC(=O)Nc1ccc2nn(-c3ccc(N(CC)CC)cc3)nc2c1 [Example 23, N-(2-(4-(diethylamino)phenyl)-2H-benzo[d][1,2,3]triazol-5-yl)propionamide] | < 200
13 | CCN(CC)c1ccc(-n2nc3cc(C)c(NC(=O)c4cccnc4)cc3n2)cc1 [Example 12, N-(2-(4-(diethylamino)phenyl)-6-methyl-2H-benzo[d][1,2,3]triazol-5-yl)nicotinamide] | 301 to 400
14 | CCCC(=O)Nc1ccc2nn(-c3ccc(N(CC)CC)cc3)nc2c1 [Example 24, N-(2-(4-(diethylamino)phenyl)-2H-benzo[d][1,2,3]triazol-5-yl)butyramide] | < 200
15 | CCN(CC)c1ccc(-n2nc3cc(C)c(NC(=O)c4ccncc4)cc3n2)cc1 [Example 13, N-(2-(4-(diethylamino)phenyl)-6-methyl-2H-benzo[d][1,2,3]triazol-5-yl)isonicotinamide] | 301 to 400
16 | COc1ccccc1C(=O)Nc1cc2nn(-c3ccc(Cl)cc3)nc2cc1C [Example 5, N-(2-(4-chlorophenyl)-6-methyl-2H-benzo[d][1,2,3]triazol-5-yl)-2-methoxybenzamide] | < 200
17 | CCN(CC)c1ccc(-n2nc3ccc(NC(=O)C(C)C)cc3n2)cc1 [Example 26, N-(2-(4-(diethylamino)phenyl)-2H-benzo[d][1,2,3]triazol-5-yl)isobutyramide] | < 200
18 | CS(=O)(=O)c1ccc2nn(-c3ccc4ccccc4c3)nc2c1 [Example 55, 5-(Methylsulfonyl)-2-(naphthalen-2-yl)-2H-benzo[d][1,2,3]triazole] | > 401
19 | CC(=O)Nc1ccc2nn(-c3ccc(Cl)cc3)nc2c1 [Example 39, N-(2-(4-chlorophenyl)-2H-benzo[d][1,2,3]triazol-5-yl)acetamide] | > 401
20 | Cc1cc2nn(-c3ccc(Cl)cc3)nc2cc1NC(=O)c1cccs1 [Example 6, N-(2-(4-chlorophenyl)-6-methyl-2H-benzo[d][1,2,3]triazol-5-yl)thiophene-2-carboxamide] | 301 to 400

Row | Structure (SMILES) | activity at 10 µM [%]
21 | CCCC(=O)Nc1cc2nn(-c3ccc(N(CC)CC)cc3)nc2cc1C [Example 15, N-(2-(4-(diethylamino)phenyl)-6-methyl-2H-benzo[d][1,2,3]triazol-5-yl)butyramide] | < 200
22 | CCCCC(=O)Nc1ccc2nn(-c3ccc(N(CC)CC)cc3)nc2c1 [Example 25, N-(2-(4-(diethylamino)phenyl)-2H-benzo[d][1,2,3]triazol-5-yl)pentanamide] | < 200
23 | CCCCC(=O)Nc1cc2nn(-c3ccc(N(CC)CC)cc3)nc2cc1C [Example 16, N-(2-(4-(diethylamino)phenyl)-6-methyl-2H-benzo[d][1,2,3]triazol-5-yl)pentanamide] | < 200
24 | CS(=O)(=O)c1ccc2nn(-c3ccc4ccccc4c3)[n+]([O-])c2c1 [Example 54, 6-(Methylsulfonyl)-2-(naphthalen-2-yl)-2H-benzo[d][1,2,3]triazole 1-oxide] | 201 to 300
25 | Nc1ccc2nn(-c3ccc(Cl)cc3)nc2c1 [Example 38, 2-(4-chlorophenyl)-2H-benzo[d][1,2,3]triazol-5-amine] | < 200
26 | CCN(CC)c1ccc(-n2nc3ccc(NC(=O)c4ccccc4)cc3n2)cc1 [Example 29, N-(2-(4-(diethylamino)phenyl)-2H-benzo[d][1,2,3]triazol-5-yl)benzamide] | < 200
27 | CN(C)c1ccc(-n2nc3ccc(N)cc3n2)cc1 [Example 41, 2-(4-(dimethylamino)phenyl)-2H-benzo[d][1,2,3]triazol-5-amine] | 301 to 400
28 | CCN(CC)c1ccc(-n2nc3ccc(NC(=O)c4ccc(Cl)cc4)cc3n2)cc1 [Example 32, 4-chloro-N-(2-(4-(diethylamino)phenyl)-2H-benzo[d][1,2,3]triazol-5-yl)benzamide] | < 200
29 | CCN(CC)c1ccc(-n2nc3ccc(NC(C)=O)cc3n2)cc1 [Example 22, N-(2-(4-(diethylamino)phenyl)-2H-benzo[d][1,2,3]triazol-5-yl)acetamide] | 201 to 300
30 | Cc1cc2nn(-c3ccc(Cl)cc3)nc2cc1N [Example 43, 2-(4-chlorophenyl)-6-methyl-2H-benzo[d][1,2,3]triazol-5-amine] | > 401
31 | CCN(CC)c1ccc(-n2nc3ccc(NC(=O)c4cccs4)cc3n2)cc1 [Example 28, N-(2-(4-(diethylamino)phenyl)-2H-benzo[d][1,2,3]triazol-5-yl)thiophene-2-carboxamide] | < 200
32 | Clc1ccc(-n2cc3ccccc3n2)cc1 [Example 48, 2-(4-chlorophenyl)-2H-indazole] | > 401
33 | Cc1cc2nn(-c3ccc(N4CCOCC4)cc3)nc2cc1N [Example 34, 6-methyl-2-(4-morpholinophenyl)-2H-benzo[d][1,2,3]triazol-5-amine] | 201 to 300
34 | CCS(=O)(=O)c1ccc2nn(-c3ccc(Cl)cc3)nc2c1 [Example 52, 2-(4′-chlorophenyl)-5-(ethylsulfonyl)-benzotriazole] | > 401
35 | CCN(CC)c1ccc(-n2nc3cc(C)c(NC(=O)C(C)C)cc3n2)cc1 [Example 17, N-(2-(4-(diethylamino)phenyl)-6-methyl-2H-benzo[d][1,2,3]triazol-5-yl)isobutyramide] | < 200
36 | CCCC(=O)Nc1ccc2nn(-c3ccc(Cl)cc3)nc2c1 [Example 36, N-(2-(4-chlorophenyl)-2H-benzo[d][1,2,3]triazol-5-yl)butyramide] | 301 to 400
37 | CCCCC(=O)Nc1cc2nn(-c3ccc(Cl)cc3)nc2cc1C [Example 9, N-(2-(4-chlorophenyl)-6-methyl-2H-benzo[d][1,2,3]triazol-5-yl)pentanamide] | 201 to 300
38 | CCN(CC)c1ccc(-n2nc3ccc(NC(=O)c4ccc(OC)cc4)cc3n2)cc1 [Example 30, N-(2-(4-(diethylamino)phenyl)-2H-benzo[d][1,2,3]triazol-5-yl)-4-methoxybenzamide] | < 200
39 | COc1ccc(C(=O)Nc2cc3nn(-c4ccc(Cl)cc4)nc3cc2C)cc1 [Example 4, N-(2-(4-chlorophenyl)-6-methyl-2H-benzo[d][1,2,3]triazol-5-yl)-4-methoxybenzamide] | 201 to 300
40 | CCCC(=O)Nc1cc2nn(-c3ccc(Cl)cc3)nc2cc1C [Example 8, N-(2-(4-chlorophenyl)-6-methyl-2H-benzo[d][1,2,3]triazol-5-yl)butyramide] | 201 to 300

same assay, conditions: Mus musculus; Table 2; murine H2K mdx myoblasts, compound final concentration 10 μM, 48 hrs; read-out: Activity (luciferase reporter assay, relative to control)

Row | Structure (SMILES) | activity at 10 µM [%]
41 | COc1ccc(-n2nc3cc(C)c(NC(C)=O)cc3n2)cc1 [Example 66, N-(2-(4-methoxyphenyl)-6-methyl-2H-benzo[d][1,2,3]triazol-5-yl)acetamide] | < 200
42 | Cc1ccc(-n2nc3cc(C)c(N)cc3n2)cc1 [Example 65, 6-methyl-2-p-tolyl-2H-benzo[d][1,2,3]triazol-5-amine] | 201 to 300
